The source of these data is US20250041254A1, “USE OF SODIUM FORMATE IN PREPARATION OF AN ANTI-INFECTIVE DRUG” (priority 2022, published 2025).

What all share (format): cell-based
For assay [1], the system named is clinical multidrug-resistant and carbapenem-resistant Escherichia coli (CR-EC). Nature of the assay: Survival rate (dot plate counting) of clinical multidrug-resistant and carbapenem-resistant Escherichia coli, 18 strains. The following applies: 10 hours. Here is the method: (§1) Single bacterial colonies were selected and inoculated into a 5 mL LB medium, cultivated at 37° C. (clinically multidrug-resistant and carbapenem-resistant or multidrug-resistant but carbapenem-sensitive Escherichia coli, clinically multidrug-resistant and carbapenem-resistant or multidrug-resistant but carbapenem-sensitive Klebsiella pneumoniae, clinically multidrug-resistant and carbapenem-resistant or multidrug-resistant but carbapenem-sensitive Pseudomonas aeruginosa, methicillin-resistant Staphylococcus aureus, and sensitive bacteria for each type of bacteria) or 30° C. […]
(§2) Thirty-six clinical multidrug-resistant Escherichia coli samples were prepared according to Embodiment 1, of which 18 were clinical multidrug-resistant and carbapenem-resistant Escherichia coli (abbreviated as CR-EC) and 18 were clinical multidrug-resistant but carbapenem-sensitive Escherichia coli (abbreviated as MDR-EC). […] The number of bacteria was counted. […]

The subject of assay [2] is clinical multidrug-resistant but carbapenem-sensitive Escherichia coli (MDR-EC). Nature of the assay: Survival rate (dot plate counting) of clinical multidrug-resistant but carbapenem-sensitive Escherichia coli, 18 strains. To be noted: 10 hours. Here is the method:
as §1, §2

Assay [3] relates to clinically multidrug-resistant and carbapenem-resistant Escherichia coli strain No. 28. Nature of the assay: Live bacterial count / survival rate of CR Escherichia coli strain No. 28 (antibiotic concentration, sodium formate concentration, time, other antibiotics). Here is the method:
Single bacterial colonies were selected and inoculated into a 5 mL LB medium, cultivated at 37° C. (clinically multidrug-resistant and carbapenem-resistant or multidrug-resistant but carbapenem-sensitive Escherichia coli, clinically multidrug-resistant and carbapenem-resistant or multidrug-resistant but carbapenem-sensitive Klebsiella pneumoniae, clinically multidrug-resistant and carbapenem-resistant or multidrug-resistant but carbapenem-sensitive Pseudomonas aeruginosa, methicillin-resistant Staphylococcus aureus, and sensitive bacteria for each type of bacteria) or 30° C. (Edwardsiella tarda and Vibrio) at 200 rpm for 16-24 hours; an appropriate amount of a bacterial solution was taken for centrifugation at 8000 rpm for 5 min to collect bacterial cells, the supernatant was removed, and the bacterial cells were washed with an equal volume of 0.85% normal saline for 3 times and suspended in M9 medium (containing 10 mM proline, 2 mM MgSO4. 0.1 mM CaCl2)), and a base bacterial solution was cultured with M9 to an OD600 concentration of 0.6 and divided into 5 mL test tubes for later use.
Taking clinically multidrug-resistant and carbapenem-resistant Escherichia coli strain No. 28 as an example, adding different concentrations of sodium formate or different concentrations of antibiotics and under different treating times, the effect of improving the sensitivity of multidrug-resistant Escherichia coli to micronomicin was studied in depth.
To understand how sodium formate increased the sensitivity of bacteria to micronomicin at different antibiotic concentrations, on the basis of exogenous addition of 20 mM sodium formate, 30-480 μg/mL (several concentrations of) micronomicin was added to treat bacteria. No antibiotic addition was used as a control, and live bacterial counts were performed to compare the survival rates of bacteria with and without the addition of sodium formate at the same antibiotic concentration after 10 hours.
To investigate whether there was a gradient effect between the concentration of sodium formate and the bactericidal efficiency, as well as its optimal bactericidal concentration, different concentrations of sodium formate (0.625 mM-40 mM) were added on the basis of 60 μg/mL micronomicin addition for 10 hours, then live bacteria were counted, and the survival rate was calculated according to a formula as the following: the number of live bacteria with different concentrations of sodium formate addition/the number of live bacteria without sodium formate addition×100%.
Further research was conducted on adding 20 mM sodium formate and 60 μg/mL micronomicin and counting live bacteria at different time, and the relationship between its bactericidal efficiency and time was observed.
To investigate whether the addition of sodium formate is effective to antibiotics other than micronomicin in multidrug-resistant Escherichia coli, a clinical multidrug-resistant and carbapenem-resistant Escherichia coli sample No. 28 was prepared according to Embodiment 1, and 20 mM sodium formate and different kinds of antibiotics were added, respectively. After 10 hours of action, the number of live bacteria was counted, and the survival rate of the bacteria with different antibiotics was calculated after adding sodium formate.

The structures appear in SMILES notation.

In the case of `CNC[C@@H]1CC[C@@H](N)[C@@H](O[C@H]2[C@H](O)[C@@H](O[C@H]3OC[C@](C)(O)[C@H](NC)[C@H]3O)[C@H](N)C[C@@H]2N)O1` [micronomicin], the survival rate in assay [1] (60 μg/mL micronomicin only, all 18 strains) was 67-97%; in assay [2] (60 μg/mL micronomicin only, remaining 8 strains), “less than 60%”; in assay [3] (60 μg/mL micronomicin only, 6 hours), 87.96%; in assay [3] (60 μg/mL micronomicin only, 16 hours), 72.72%; in assay [3] (60 μg/mL micronomicin only, 24 hours), 34.64%; in assay [3] (micronomicin 30 μg/mL without sodium formate, 10 hours) it was 100%. The survival rate in assay [3] (micronomicin 60 μg/mL without sodium formate, 10 hours) is listed as 77.37%; in assay [3] (micronomicin 120 μg/mL without sodium formate, 10 hours), 35.87%; in assay [3] (micronomicin 240 μg/mL without sodium formate, 10 hours), 29.77%; in assay [3] (micronomicin 480 μg/mL without sodium formate, 10 hours), 29.01%. The “number of live bacteria” value in assay [3] (60 μg/mL micronomicin only, 1-4 hours) is recorded as “remained basically unchanged”. Also, the bacterial survival rate in assay [3] (sodium formate gradient experiment, control group: 60 μg/mL micronomicin without sodium formate, 10 hours) amounted to 72.3%.
`O=C[O-].[Na+]` [sodium formate]: the “killing effect on bacteria” value in assay [1] (20 mM sodium formate alone) and in assay [2] (20 mM sodium formate alone) was “no killing effect” in each case.
